Reference: patent publication US12662473B2, “Inhibitors for programmed cell necrosis and preparation method therefor and use thereof” (SHANGHAI INSTITUTE OF ORGANIC CHEMISTRY, CHINESE ACADEMY OF …, priority 2019, dated 2026)
Read-outs that look alike come from different tables or passages of the source.

Experiments:
FADD−/− Jurkat cells = assay: TNF-induced programmed cell necrosis inhibition, Cell Titer-Glo viability; format: cell-based
Excerpt: (§1) The adopted biological assay protocol was: the programmed necroptosis effect of compounds on TNF-induced in FADD (Fas-Associated Death Domain) deficient Jurkat cells and L929 cells.
(§2) In order to verify the inhibitory effect of the compounds of the present invention on programmed cell necrosis at the cellular level, cell types closely related to the RIP1 pathway, namely FADD deficient Jurkat cells (human peripheral blood leukemia T cell line) and L929 cells, were selected. Two different stimulation methods were used: tumor necrosis factor (TNFα) used alone, or TNFα used in combination with mitochondria-derived cysteine aspartate activator (SMAC). Cells viability was calculated by detecting chemiluminescence values, and the biological activity of the compound for inhibiting programmed cell necrosis can be obtained.
(§3) Methods: FADD deficient Jurkat cells: FADD deficient Jurkat cells (human peripheral blood leukemia T cell line) were cultured in vitro. After growing to the logarithmic growth phase, the cells were collected, centrifuged at 1000 rpm for 5 min, the supernatant was discarded, and the cell concentration was adjusted to 2.5×10^5/mL. Cells were seeded into 384-well plates, 40 μl per well. 5 μL of Smac (50 nM) diluted in cell culture medium and 5 μL of each compound were added to the corresponding wells. After pretreatment at 37° C. for 1 h, 5 μL of TNFα (50 ng/mL) diluted in cell culture medium was added to each well of the stimulation group, and 5 μL of the culture medium was added to the control group. The plate was cultured in a cell incubator (37° C., 5% CO2) for 14 h, and 15 μl of Cell Titer-Glo solution was added to each well, then incubated for 30 min at room temperature, and intracellular ATP level was measured by detecting luminescence. The unstimulated DMSO control wells were taken as 100% cell viability. L929 cells: The L929 cells (mouse fibroblasts) were cultured in vitro, digested and diluted to 6.25×10^4/ml, and the cells were seeded into 384-well plates, 40 μl per well. The plate was placed in a cell incubator (37° C., 5% CO2) for 12 hours. 5 μL of Smac (500 nM) diluted in cell culture medium and 5 μL of each compound were added to the corresponding wells. After pretreatment at 37° C. for 1 h, 5 μL of TNFα (500 ng/mL) diluted in cell culture medium was added to each well of the stimulation group, and 5 μL of the culture medium was added to the control group. After the plate was cultured for 14 h in a cell incubator (37° C., 5% CO2), 15 μl of Cell Titer-Glo solution was added to each well. The plate was incubated at room temperature for 30 min, and intracellular ATP level was measured by detecting luminescence. The unstimulated DMSO control wells were taken as 100% cell viability. EC50 values of the compounds were calculated using Prism Graphpad statistical software.
FADD deficient Jurkat cells: FADD deficient Jurkat cells (human peripheral blood leukemia T cell line) were cultured in vitro. After growing to the logarithmic growth phase, the cells were collected, centrifuged at 1000 rpm for 5 min, the supernatant was discarded, and the cell concentration was adjusted to 2.5×10^5/mL. Cells were seeded into 384-well plates, 40 μl per well. 5 μL of Smac (50 nM) diluted in cell culture medium and 5 μL of each compound were added to the corresponding wells. After pretreatment at 37° C. for 1 h, 5 μL of TNFα (50 ng/mL) diluted in cell culture medium was added to each well of the stimulation group, and 5 μL of the culture medium was added to the control group. After the plate was cultured in a cell incubator (37° C., 5% CO2) for 14 h, 15 μl of Cell Titer-Glo solution was added to each well. The mixture was incubated for 30 min at room temperature, and intracellular ATP level was measured by detecting luminescence. The unstimulated DMSO control wells were taken as 100% cell viability.

L929 cells = assay: as above; format: cell-based, mouse; settings: read-out: EC50 inhibitory activity on programmed cell necrosis
Excerpt: as §1, §2, §3
L929 cells: The L929 cells (mouse fibroblasts) were cultured in vitro, digested and diluted to 6.25×10^4/ml, and the cells were seeded into 384-well plates, 40 μl per well. The plate was placed in a cell incubator (37° C., 5% CO2) for 12 hours. 5 μL of Smac (500 nM) diluted in cell culture medium and 5 μL of each compound were added to the corresponding wells. After pretreatment at 37° C. for 1 h, 5 μL of TNFα (500 ng/mL) diluted in cell culture medium was added to each well of the stimulation group, and 5 μL of the culture medium was added to the control group. After the plate was cultured for 14 h in a cell incubator (37° C., 5% CO2), and 15 μl of Cell Titer-Glo solution was added to each well, then incubated at room temperature for 30 min, and intracellular ATP level was measured by detecting luminescence. The unstimulated DMSO control wells were taken as 100% cell viability.

[1] = Homo sapiens, Jurkat, 14 h, TNFa + SM164, read-out: EC50 inhibitory activity on programmed cell necrosis
[2] = Homo sapiens, Jurkat, TNFa, read-out: EC50 inhibitory activity on programmed cell necrosis
[3] = Mus musculus, L929, 14 h, L929 cells (mouse), TNFa + SM164
[4] = Mus musculus, L929, L929 cells (mouse), TNFa
[5] = FADD−/− Jurkat cells (human), TNFa + SM164, read-out: EC50 inhibitory activity on programmed cell necrosis
[6] = FADD−/− Jurkat cells (human), TNFa, read-out: EC50 inhibitory activity on programmed cell necrosis
[7] = Mus musculus, L929, L929 cells (mouse), TNFa + SM164

| SMILES | EC50 (FADD−/− Jurkat cells; [1]) | EC50 (FADD−/− Jurkat cells; [2]) | EC50 (L929 cells; [3]) | EC50 (L929 cells; [4]) | EC50 (FADD−/− Jurkat cells; [5]) | EC50 (FADD−/− Jurkat cells; [6]) | EC50 (L929 cells; L929 cells (mouse), TNFa) | EC50 (L929 cells; L929 cells (mouse), TNFa + SM164) | EC50 (L929 cells; [7]) |
| --- | --- | --- | --- | --- | --- | --- | --- | --- | --- |
| CN(C)C(=O)c1noc([C@@H]2CCCN2C(=O)C(C)(C)Oc2ccc(Cl)cc2)n1 [QY-3-65] | > 10 µM | > 10 µM | > 10 µM | > 10 µM |  |  |  |  |  |
| Cc1noc([C@@H]2CCCN2C(=O)C(C)(C)Oc2ccc(Cl)cc2Cl)n1 [QY-3-81] | 1.96 µM | 0.326 µM | 2.72 µM | 0.704 µM |  |  |  |  |  |
| Cc1noc([C@@H]2CCCN2C(=O)C(C)(C)N(C)c2ccc(Cl)cc2)n1 [QY-3-86] | 8.68 µM | 13.5 µM | > 10 µM | > 10 µM |  |  |  |  |  |
| Cc1noc([C@@H]2CCCN2C(=O)C(C)(C)Oc2ccc(Cl)cc2C)n1 [QY-3-94] |  |  | 5.23 µM |  | 2.96 µM | 0.516 µM | 1.41 µM |  |  |
| COc1cc(Cl)ccc1OC(C)(C)C(=O)N1CCC[C@H]1c1nc(C)no1 [QY-3-95] | 1.14 µM | 0.102 µM | 1 µM | 0.135 µM |  |  |  |  |  |
| Cc1noc([C@@H]2CCCN2C(=O)C(C)(C)Oc2ccc(Cl)cc2C)n1 [QY-3-96] |  |  |  |  | 9.22 µM | 2.79 µM | > 10 µM | > 10 µM |  |
| CC(C)(Oc1ccc(Cl)cc1F)C(=O)N1CCCC1c1ccccc1 (stereo not drawn) [QY-3-99, 2-(4-Chloro-2-fluorophenoxy)-2-methyl-1-(2-phenylpyrrolidin-1-yl)propan-1-one] | 0.444 µM | 0.061 µM |  | 0.062 µM |  |  |  |  | 0.244 µM |
| Cc1noc([C@@H]2CCCN2C(=O)C(C)(C)Oc2cc(Cl)c(Cl)cc2Cl)n1 [QY-4-1] | > 10 µM | 10.3 µM | > 10 µM | 12.7 µM |  |  |  |  |  |
| Cc1noc([C@@H]2CCCN2C(=O)C(C)(C)Oc2c(F)cc(Cl)cc2F)n1 [QY-4-2] | 7.73 µM | 1.06 µM | 16.9 µM | 3.95 µM |  |  |  |  |  |
| CC(C)(Oc1ccc(Cl)cc1)C(=O)N1CCCC1c1ccc(Cl)cc1 (stereo not drawn) [QY-4-6] | 0.776 µM | 0.116 µM | 0.292 µM | 0.065 µM |  |  |  |  |  |
| CC(C)(Oc1ccc(Cl)cc1)C(=O)N1CCCC1c1ccc(F)cc1 (stereo not drawn) [QY-4-7] | 0.825 µM | 0.126 µM | 0.652 µM | 0.111 µM |  |  |  |  |  |
| Cn1nnnc1[C@@H]1CCCN1C(=O)C(C)(C)Oc1ccc(Cl)cc1 [QY-4-11] | 1.71 µM | 0.061 µM | > 10 µM | > 10 µM |  |  |  |  |  |
| Cn1nnc([C@@H]2CCCN2C(=O)C(C)(C)Oc2ccc(Cl)cc2)n1 [QY-4-12] | 5.89 µM | 0.607 µM | 9.53 µM | 1.61 µM |  |  |  |  |  |
| Cc1noc([C@@H]2CCCN2C(=O)C(C)(C)Oc2c(F)cc(F)cc2F)n1 [QY-4-14] | 40.6 µM | 18 µM | > 10 µM | 5.89 µM |  |  |  |  |  |
| Cc1ccccc1C1CCCN1C(=O)C(C)(C)Oc1ccc(Cl)cc1 (stereo not drawn) [QY-4-27] | > 10 µM | 2.9 µM | > 10 µM | 3.67 µM |  |  |  |  |  |
| CC(C)(Oc1ccc(Cl)cc1)C(=O)N1CCCC1c1ccccc1Cl (stereo not drawn) [QY-4-32] | 2.68 µM | 0.712 µM | 1.65 µM | 0.52 µM |  |  |  |  |  |
| CC(C)(Oc1ccc(Cl)cc1)C(=O)N1CCCC1c1cccc(Cl)c1 (stereo not drawn) [QY-4-35] | > 10 µM | 4.09 µM | > 10 µM | 3.7 µM |  |  |  |  |  |

| SMILES | EC50 (FADD−/− Jurkat cells; [1]) | EC50 (FADD−/− Jurkat cells; [2]) | EC50 (L929 cells; [3]) | EC50 (L929 cells; [4]) | EC50 (FADD−/− Jurkat cells; [5]) | EC50 (FADD−/− Jurkat cells; [6]) | EC50 (L929 cells; L929 cells (mouse), TNFa) | EC50 (L929 cells; L929 cells (mouse), TNFa + SM164) | EC50 (L929 cells; [7]) |
| --- | --- | --- | --- | --- | --- | --- | --- | --- | --- |
| CC(C)(Oc1ccc(Cl)cc1)C(=O)N1CCCC1c1cccc(F)c1 (stereo not drawn) [QY-4-39] | 1.19 µM | 0.274 µM | 0.675 µM | 0.189 µM |  |  |  |  |  |
| Cc1ccc(C2CCCN2C(=O)C(C)(C)Oc2ccc(Cl)cc2C#N)cc1 (stereo not drawn) [QY-4-66] | 2.19 µM | 0.544 µM | 1.28 µM | 0.392 µM |  |  |  |  |  |
| Cc1ccc(C2CCCN2C(=O)C(C)(C)Oc2ccc(Cl)cc2C(F)(F)F)cc1 (stereo not drawn) [QY-4-67] | 5.16 µM | 1.33 µM | 3.93 µM | 1.39 µM |  |  |  |  |  |
| CC(C)(Oc1ccc(Cl)cc1F)C(=O)N1CCCC1c1cccc(C#N)c1 (stereo not drawn) [QY-4-69] | 9.38 µM | 1.54 µM | 3.63 µM | 0.65 µM |  |  |  |  |  |
| COc1cccc(C2CCCN2C(=O)C(C)(C)Oc2ccc(Cl)cc2F)c1 (stereo not drawn) [QY-4-70] | > 10 µM | > 10 µM | > 10 µM | 1.78 µM |  |  |  |  |  |
| Cc1ccc(C2CCCN2C(=O)C(C)(C)Oc2ccc(Cl)cc2F)cc1 (stereo not drawn) [QY-4-75] | 0.704 µM | 0.083 µM | 0.188 µM | 0.043 µM |  |  |  |  |  |
| CC(C)(Oc1ccc(Cl)cc1F)C(=O)N1CCCC1c1ccccc1F (stereo not drawn) [QY-4-78] | 1.1 µM | 0.205 µM | 0.724 µM | 0.156 µM |  |  |  |  |  |
| COc1ccc(C2CCCN2C(=O)C(C)(C)Oc2ccc(Cl)cc2F)cc1 (stereo not drawn) [QY-4-87] | > 10 µM | 2.38 µM | > 10 µM | 2.4 µM |  |  |  |  |  |
| CC(C)(Oc1ccc(Cl)cc1F)C(=O)N1CCCC1c1ccc(C#N)cc1 (stereo not drawn) [QY-4-88] | 4 µM | 0.746 µM | 3.1 µM | 1.16 µM |  |  |  |  |  |
| CCc1ccc(C2CCCN2C(=O)C(C)(C)Oc2ccc(Cl)cc2)cc1 (stereo not drawn) [QY-4-96] | 6.93 µM | 1.47 µM | 8.13 µM | 2.1 µM |  |  |  |  |  |
| CCc1ccc(C2CCCN2C(=O)C(C)(C)Oc2ccc(Cl)cc2F)cc1 (stereo not drawn) [QY-4-99] | 9.2 µM | 1.45 µM | 9.12 µM | 2.51 µM |  |  |  |  |  |
| CC(C)c1ccc(C2CCCN2C(=O)C(C)(C)Oc2ccc(Cl)cc2F)cc1 (stereo not drawn) [QY-5-1] | > 10 µM | > 10 µM | > 10 µM | > 10 µM |  |  |  |  |  |
| CN(C)c1ccc(C2CCCN2C(=O)C(C)(C)Oc2ccc(Cl)cc2F)cc1 (stereo not drawn) [QY-5-4] | > 10 µM | > 10 µM | > 10 µM | > 10 µM |  |  |  |  |  |
| Cc1ccc([C@@H]2CCCN2C(=O)C(C)(C)Oc2ccc(Cl)cc2F)cc1 [QY-5-22, (S)-2-(4-Chloro-2-fluorophenoxy)-2-methyl-1-(2-(p-tolyl)pyrrolidin-1-yl)propan-1-one] | 0.683 µM | 0.098 µM |  | 0.062 µM |  |  |  |  | 0.262 µM |
| CNC(=O)c1ccc(C2CCCN2C(=O)C(C)(C)Oc2ccc(Cl)cc2F)cc1 (stereo not drawn) [QY-5-79] | 1.06 µM | 9.23 µM | > 10 µM | > 10 µM |  |  |  |  |  |
| CC(C)(Oc1ccc(Cl)cc1F)C(=O)N1CCCC1c1ccc(C(F)(F)F)cc1 (stereo not drawn) [QY-5-83] | 7.72 µM | 1.29 µM | > 10 µM | 8.75 µM |  |  |  |  |  |
